This test concerns the target T1, Recombinant human cathepsin K (Homo sapiens, UniProt P43235).
T1 construct: made in house
T1 sequence (P43235 115-329): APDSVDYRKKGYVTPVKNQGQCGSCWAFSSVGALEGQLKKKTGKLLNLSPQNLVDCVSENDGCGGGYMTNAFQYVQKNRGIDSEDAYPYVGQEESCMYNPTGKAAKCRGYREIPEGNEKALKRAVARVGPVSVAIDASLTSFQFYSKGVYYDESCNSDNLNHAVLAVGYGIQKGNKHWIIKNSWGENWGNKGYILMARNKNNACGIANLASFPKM
Kind of test: Inhibition of cathepsin K activity (Z-Phe-Arg-AMC fluorescence assay). In kind it is biochemical. The following applies: 25 uM Z-Phe-Arg-AMC, pH 5.5, 1 hour at 37° C. The procedure: Test 1: Inhibition of Cathepsin K Activity
Recombinant human cathepsin K was prepared in accordance with Biol, Pharm. Bull, 19(8), 1026-1031 (1996) and J. Biol. Chem. 271, 2126-2132 (1996). Stock solutions of 2.5 mM Z-Phe-Arg-AMC (BACHEM, 1-1160) and all inhibitors were prepared in dimethyl sulfoxide. In vitro assays for cathepsin K were conducted with 25 uM Z-Phe-Arg-AMC as a substrate at pH 5.5 in 100 mM Na acetate buffer containing 20 mM cysteine and 5 mM EDTA in the presence of 2% final concentration of DMSO. Reaction was initiated by the addition of enzyme to samples, which were then incubated for 1 hour at 37° C. The fluorescence was monitored at 460 nm (excitation wavelength 360 nm) using fluorescence plate reader.
The concentrations of the test compounds, which inhibit 50% of cathepsin K activity, are represented as IC50 in Table 1.

Where a name gives a salt, the structure may show the parent alone.

On to `C[S+]([O-])c1ccccc1N1CCC(NC(=O)C2(NC(=O)c3cc4ccccc4o3)CCCCC2)C(=O)C1` (stereo not drawn) [Example 68], for which the IC50 turned out to be 3.12 nM.

As to `O=C(NC1(C(=O)NC2CCN(c3ccccc3N3CCCCC3=O)CC2=O)CCCCC1)c1cc2ccccc2o1` (stereo not drawn) [Example 45, 4-[N-[1-[N-(benzofuran-2-ylcarbonyl)amino]cyclohexanecarbonyl]amino]-1-[2-(piperidin-2-one-1-yl)phenyl]piperidin-3-one], the IC50 came out at 6.8 nM.

For the compound `CS(=O)(=O)c1ccccc1N1CCC(NC(=O)C2(NC(=O)c3ccc(OCCN4CCCC4)cc3)CCCCC2)C(=O)C1` (stereo not drawn) [Example 159, 4-[N-[1-[N-(4-(2-pyrrolidinethoxy)benzoyl)amino]cyclohexanecarbonyl]amino]-1-(2-methanesulfonylphenyl)piperidin-3-one hydrochloride], the IC50 came out at 3.25 nM.

With `Cc1cc(C(=O)NC2(C(=O)NC3CCN(c4ccccc4S(C)(=O)=O)CC3=O)CCCCC2)no1` (stereo not drawn) [Example 106, 4-[N-[1-[N-(5-methyl-isoxazol-3-ylcarbonyl)amino]cyclohexanecarbonyl]amino]-1-(2-methanesulfonylphenyl)piperidin-3-one], the IC50 was found to be 19.9 nM.

Take `CN(C)c1ccc(C(=O)NC2(C(=O)NC3CCN(c4ccc(F)cc4S(C)(=O)=O)CC3=O)CCCCC2)cc1` (stereo not drawn) [Example 171, 4-[N-[1-[N-(4-(dimethylamino)benzoyl)amino]cyclohexanecarbonyl]amino]-1-(4-fluoro-2-methanesulfonylphenyl)piperidin-3-one]: the IC50 came to 0.77 nM.

On to `CS(=O)(=O)c1ccccc1N1CCC(NC(=O)C2(NC(=O)c3ccc(N4CCCC4=O)cc3)CCCCC2)C(=O)C1` (stereo not drawn) [Example 167, 4-[N-[1-[N-(4-(2-oxopyrrolidine)benzoyl)amino]cyclohexanecarbonyl]amino]-1-(2-methanesulfonylphenyl)piperidin-3-one], for which the IC50 came to 3.07 nM.

With `O=C(NC1(C(=O)NC2CCN(c3cc(C(F)(F)F)ccc3Cl)CC2=O)CCCCC1)c1cc2ccccc2s1` (stereo not drawn) [Example 130, 4-[N-[1-[N-(benzothiophen-2-ylcarbonyl)amino]cyclohexanecarbonyl]amino]-1-(2-chloro-5-trifluoromethylphenyl)piperidin-3-one], the IC50 was 1.2 nM.

Take `O=C(NC1(C(=O)NC2CCN(c3ccc([N+](=O)[O-])cc3)CC2=O)CCCCC1)c1cc2ccccc2o1` (stereo not drawn) [Example 16, 4-[N-[1-[N-(benzofuran-2-ylcarbonyl)amino]cyclohexanecarbonyl]amino]-1-(4-nitrophenyl)piperidin-3-one]: the IC50 is 10.8 nM.

With `Cc1c(C(=O)NC2(C(=O)NC3CCN(c4ccccc4S(C)(=O)=O)CC3=O)CCCCC2)oc2ccccc12` (stereo not drawn) [Example 133, 4-[N-[1-[N-(3-methyl-benzofuran-2-ylcarbonyl)amino]cyclohexanecarbonyl]amino]-1-(2-methanesulfonylphenyl)piperidin-3-one], the IC50 came out at 1.22 nM.

As for `CS(=O)(=O)c1ccccc1N1CCC(NC(=O)C2(NC(=O)c3ccc(OCCN4CCOCC4)cc3)CCCCC2)C(=O)C1` (stereo not drawn) [Example 155, 4-[N-[1-[N-(4-(2-morpholinethoxy)benzoyl)amino]cyclohexanecarbonyl]amino]-1-(2-methanesulfonylphenyl)piperidin-3-one], the IC50 was found to be 1.29 nM.

Take `CC(C)(C)OC(=O)c1ccccc1N1CCC(NC(=O)C2(NC(=O)c3cc4ccccc4o3)CCCCC2)C(=O)C1` (stereo not drawn) [Example 37, 4-[N-[1-[N-(benzofuran-2-ylcarbonyl)amino]cyclohexanecarbonyl]amino]-1-[2-(tert-butoxycarbonyl)phenyl]piperidin-3-one]: the IC50 is 3.78 nM.

As for `CCOC(=O)Nc1ccccc1N1CCC(NC(=O)C2(NC(=O)c3cc4ccccc4o3)CCCCC2)C(=O)C1` (stereo not drawn) [Example 48, 4-[N-[1-[N-(benzofuran-2-ylcarbonyl)amino]cyclohexanecarbonyl]amino]-1-[2-[N-(ethoxycarbonyl)amino]phenyl]piperidin-3-one], the IC50 was found to be 0.67 nM.

Regarding `CS(=O)(=O)c1ccccc1N1CCC(NC(=O)C2(NC(=O)c3ccc(OCCN4CCOCC4)cc3)CCCCC2)C(=O)C1` (stereo not drawn) [Example 158, 4-[N-[1-[N-(4-(2-morpholinethoxy)benzoyl)amino]cyclohexanecarbonyl]amino]-1-(2-methanesulfonylphenyl)piperidin-3-one hydrochloride], the IC50 amounted to 3.15 nM.

In the case of `CS(=O)(=O)c1ccccc1N1CCC(NC(=O)C2(NC(=O)c3cc(N4CCCC4=O)co3)CCCCC2)C(=O)C1` (stereo not drawn) [Example 168, 4-[N-[1-[N-(4-(2-oxopyrrolidine)furan-2-ylcarbonyl)amino]cyclohexanecarbonyl]amino]-1-(2-methanesulfonylphenyl)piperidin-3-one], the IC50 was found to be 15.8 nM.

Take `CSc1ccccc1N1CCC(NC(=O)C2(NC(=O)c3cc4ccccc4o3)CCCCC2)C(=O)C1` (stereo not drawn) [Example 36, 4-[N-[1-[N-(benzofuran-2-ylcarbonyl)amino]cyclohexanecarbonyl]amino]-1-(2-methylthiophenyl)piperidin-3-one]: the IC50 stood at 2.13 nM.

As for `CS(=O)(=O)c1ccccc1N1CCC(NC(=O)C2(NC(=O)c3ccc(OCCN4CCCCC4)cc3)CCCCC2)C(=O)C1` (stereo not drawn) [Example 160, 4-[N-[1-[N-(4-(2-piperidinethoxy)benzoyl)amino]cyclohexanecarbonyl]amino]-1-(2-methanesulfonylphenyl)piperidin-3-one hydrochloride], the IC50 stood at 3.14 nM.

Consider `CS(=O)(=O)c1ccccc1N1CCC(NC(=O)C2(NC(=O)c3ccc(C(F)(F)F)cc3)CCCCC2)C(=O)C1` (stereo not drawn) [Example 154, 4-[N-[1-[N-(4-trifluoromethylbenzoyl)amino]cyclohexanecarbonyl]amino]-1-(2-methanesulfonylphenyl)piperidin-3-one], for which the IC50 came to 1.37 nM.

For `O=C(NC1(C(=O)NC2CCN(c3ccccc3[N+](=O)[O-])CC2=O)CCCCC1)c1ccc2ccccc2n1` (stereo not drawn) [Example 138, 4-[N-[1-[N-(quinolin-2-ylcarbonyl)amino]cyclohexanecarbonyl]amino]-1-(2-nitrophenyl)piperidin-3-one], the IC50 is 4.82 nM.

For `CS(=O)(=O)c1ccccc1N1CCC(NC(=O)C2(NC(=O)c3cc4cc(OCCN5CCOCC5)ccc4o3)CCCCC2)C(=O)C1` (stereo not drawn) [Example 164, 4-[N-[1-[N-(5-(2-morpholinethoxy)benzofuran-2-ylcarbonyl)amino]cyclohexanecarbonyl]amino]-1-(2-methanesulfonylphenyl)piperidin-3-one hydrochloride], the IC50 is 0.52 nM.

For `CC(C)C(=O)Nc1ccccc1N1CCC(NC(=O)C2(NC(=O)c3cc4ccccc4o3)CCCCC2)C(=O)C1` (stereo not drawn) [Example 51, 4-[N-[1-[N-(benzofuran-2-ylcarbonyl)amino]cyclohexanecarbonyl]amino]-1-[2-[N-(isobutyryl)amino]phenyl]piperidin-3-one], the IC50 is 4.11 nM.

Turning to `CS(=O)(=O)c1ccccc1N1CCC(NC(=O)C2(NC(=O)c3cc4cc(OCCN5CCCCC5)ccc4o3)CCCCC2)C(=O)C1` (stereo not drawn) [Example 163, 4-[N-[1-[N-(5-(2-piperidinethoxy)benzofuran-2-ylcarbonyl)amino]cyclohexanecarbonyl]amino]-1-(2-methanesulfonylphenyl)piperidin-3-one], the IC50 was determined as 0.55 nM.

These data come from patent publication US7342027B2 (Yuhan Corporation, priority 2002, dated 2008).
